Assay results taken from ChEMBL document CHEMBL3991601, “The target landscape of clinical kinase drugs” (Science, 2017).
Counter-ions that a name gives are not always drawn. Activity calls are given as the source filed them.

What was measured:
[1] = biological target: RAC-alpha serine/threonine-protein kinase (Homo sapiens, UniProt P31749)
[2] = biological target: T1, Serine/threonine-protein kinase A-Raf (Homo sapiens, UniProt P10398)
T1 sequence (P10398 whole entry): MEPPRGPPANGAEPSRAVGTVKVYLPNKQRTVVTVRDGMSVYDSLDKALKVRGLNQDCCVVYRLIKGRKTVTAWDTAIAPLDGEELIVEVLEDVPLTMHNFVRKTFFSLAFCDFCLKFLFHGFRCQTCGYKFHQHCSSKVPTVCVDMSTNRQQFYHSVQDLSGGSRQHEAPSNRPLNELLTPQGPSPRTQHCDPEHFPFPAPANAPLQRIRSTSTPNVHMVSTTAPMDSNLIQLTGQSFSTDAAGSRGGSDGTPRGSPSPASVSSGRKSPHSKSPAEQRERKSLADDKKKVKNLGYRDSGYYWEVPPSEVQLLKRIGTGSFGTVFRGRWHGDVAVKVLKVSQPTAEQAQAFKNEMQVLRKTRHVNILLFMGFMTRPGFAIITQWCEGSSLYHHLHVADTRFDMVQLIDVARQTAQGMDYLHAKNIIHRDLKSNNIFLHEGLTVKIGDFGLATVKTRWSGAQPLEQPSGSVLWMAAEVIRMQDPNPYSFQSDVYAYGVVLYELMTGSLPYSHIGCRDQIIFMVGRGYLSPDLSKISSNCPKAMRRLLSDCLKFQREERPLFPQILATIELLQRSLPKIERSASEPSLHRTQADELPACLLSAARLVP

[3] = biological target: Casein kinase I isoform epsilon (Homo sapiens, UniProt P49674)
[4] = biological target: Tyrosine-protein kinase FRK (Homo sapiens, UniProt P42685)
[5] = biological target: T2, Interleukin-1 receptor-associated kinase 4 (Homo sapiens, UniProt Q9NWZ3)
T2 sequence (Q9NWZ3 whole entry): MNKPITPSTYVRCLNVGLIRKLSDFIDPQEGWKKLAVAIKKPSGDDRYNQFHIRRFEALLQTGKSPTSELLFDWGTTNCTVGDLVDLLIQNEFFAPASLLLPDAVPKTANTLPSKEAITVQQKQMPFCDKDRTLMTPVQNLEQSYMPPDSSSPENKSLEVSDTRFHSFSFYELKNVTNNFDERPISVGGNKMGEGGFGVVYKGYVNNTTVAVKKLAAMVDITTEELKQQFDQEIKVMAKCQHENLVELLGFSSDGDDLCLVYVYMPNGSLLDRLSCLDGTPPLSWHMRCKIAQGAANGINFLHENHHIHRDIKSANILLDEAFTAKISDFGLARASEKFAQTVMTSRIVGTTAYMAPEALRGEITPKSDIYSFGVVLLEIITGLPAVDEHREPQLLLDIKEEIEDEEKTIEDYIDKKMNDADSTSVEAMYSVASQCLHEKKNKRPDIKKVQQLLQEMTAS

[6] = biological target: T3, Dual specificity mitogen-activated protein kinase kinase 3 (Homo sapiens, UniProt P46734)
T3 sequence (P46734 whole entry): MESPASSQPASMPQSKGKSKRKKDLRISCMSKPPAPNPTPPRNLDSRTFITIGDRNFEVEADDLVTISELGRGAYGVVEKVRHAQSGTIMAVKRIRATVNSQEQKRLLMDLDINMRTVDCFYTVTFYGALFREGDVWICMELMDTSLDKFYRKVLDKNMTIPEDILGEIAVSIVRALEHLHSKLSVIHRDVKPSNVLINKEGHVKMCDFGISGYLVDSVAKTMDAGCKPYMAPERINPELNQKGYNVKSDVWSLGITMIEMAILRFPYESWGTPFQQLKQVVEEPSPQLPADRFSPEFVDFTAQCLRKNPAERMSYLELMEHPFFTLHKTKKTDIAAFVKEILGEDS

[7] = biological target: Mitogen-activated protein kinase kinase kinase 1 (Homo sapiens, UniProt Q13233)
[8] = biological target: S-adenosylmethionine synthase isoform type-2 (Homo sapiens, UniProt P31153)
[9] = biological target: Proto-oncogene tyrosine-protein kinase receptor Ret (Homo sapiens, UniProt P07949)
[10] = biological target: Elongation factor Tu, mitochondrial (Homo sapiens, UniProt P49411)
Also: in the data inactive means no Kd found up to 30 µM.

Chain of Casein kinase I isoform epsilon (P49674 whole entry, canonical isoform): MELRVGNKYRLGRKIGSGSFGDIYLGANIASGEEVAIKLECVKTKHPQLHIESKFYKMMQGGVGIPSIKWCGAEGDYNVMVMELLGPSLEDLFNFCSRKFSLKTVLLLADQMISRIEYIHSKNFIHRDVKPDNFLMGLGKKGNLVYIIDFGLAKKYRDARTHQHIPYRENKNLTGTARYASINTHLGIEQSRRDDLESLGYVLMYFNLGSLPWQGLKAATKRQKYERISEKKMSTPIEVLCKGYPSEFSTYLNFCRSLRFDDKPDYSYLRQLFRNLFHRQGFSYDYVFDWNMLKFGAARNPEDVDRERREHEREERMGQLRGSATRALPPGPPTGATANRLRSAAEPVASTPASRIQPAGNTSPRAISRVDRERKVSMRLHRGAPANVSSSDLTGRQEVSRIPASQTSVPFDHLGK
Chain of Proto-oncogene tyrosine-protein kinase receptor Ret (P07949 whole entry): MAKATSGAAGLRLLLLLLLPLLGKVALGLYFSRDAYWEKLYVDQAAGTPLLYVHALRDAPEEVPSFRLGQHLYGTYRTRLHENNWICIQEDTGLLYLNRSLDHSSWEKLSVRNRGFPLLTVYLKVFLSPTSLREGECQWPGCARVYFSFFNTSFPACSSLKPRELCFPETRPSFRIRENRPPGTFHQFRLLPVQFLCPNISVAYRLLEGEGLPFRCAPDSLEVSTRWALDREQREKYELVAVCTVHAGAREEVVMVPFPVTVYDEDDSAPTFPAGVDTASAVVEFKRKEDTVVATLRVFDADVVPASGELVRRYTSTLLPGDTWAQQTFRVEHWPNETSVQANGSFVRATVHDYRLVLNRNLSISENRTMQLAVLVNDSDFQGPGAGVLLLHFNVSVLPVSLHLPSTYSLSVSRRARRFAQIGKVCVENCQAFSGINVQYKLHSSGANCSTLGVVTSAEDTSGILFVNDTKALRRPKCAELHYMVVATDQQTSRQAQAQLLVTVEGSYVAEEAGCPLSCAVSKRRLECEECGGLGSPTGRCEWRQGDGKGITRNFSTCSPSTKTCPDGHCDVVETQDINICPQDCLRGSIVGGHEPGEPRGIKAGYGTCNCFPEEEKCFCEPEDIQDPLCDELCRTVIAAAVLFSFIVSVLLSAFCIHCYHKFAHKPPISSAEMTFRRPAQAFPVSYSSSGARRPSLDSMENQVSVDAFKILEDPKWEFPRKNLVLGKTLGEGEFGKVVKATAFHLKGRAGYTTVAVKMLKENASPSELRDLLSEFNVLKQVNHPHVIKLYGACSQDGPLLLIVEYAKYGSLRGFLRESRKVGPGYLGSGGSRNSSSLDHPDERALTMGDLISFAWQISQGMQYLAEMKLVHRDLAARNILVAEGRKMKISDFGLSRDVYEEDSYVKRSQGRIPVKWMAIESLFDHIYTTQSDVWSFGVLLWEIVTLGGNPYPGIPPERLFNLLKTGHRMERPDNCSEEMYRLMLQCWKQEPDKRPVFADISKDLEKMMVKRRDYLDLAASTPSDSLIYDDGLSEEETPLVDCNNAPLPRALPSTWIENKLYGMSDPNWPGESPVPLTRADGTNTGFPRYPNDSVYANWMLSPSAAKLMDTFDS
Chain of Mitogen-activated protein kinase kinase kinase 1 (Q13233 whole entry, canonical isoform): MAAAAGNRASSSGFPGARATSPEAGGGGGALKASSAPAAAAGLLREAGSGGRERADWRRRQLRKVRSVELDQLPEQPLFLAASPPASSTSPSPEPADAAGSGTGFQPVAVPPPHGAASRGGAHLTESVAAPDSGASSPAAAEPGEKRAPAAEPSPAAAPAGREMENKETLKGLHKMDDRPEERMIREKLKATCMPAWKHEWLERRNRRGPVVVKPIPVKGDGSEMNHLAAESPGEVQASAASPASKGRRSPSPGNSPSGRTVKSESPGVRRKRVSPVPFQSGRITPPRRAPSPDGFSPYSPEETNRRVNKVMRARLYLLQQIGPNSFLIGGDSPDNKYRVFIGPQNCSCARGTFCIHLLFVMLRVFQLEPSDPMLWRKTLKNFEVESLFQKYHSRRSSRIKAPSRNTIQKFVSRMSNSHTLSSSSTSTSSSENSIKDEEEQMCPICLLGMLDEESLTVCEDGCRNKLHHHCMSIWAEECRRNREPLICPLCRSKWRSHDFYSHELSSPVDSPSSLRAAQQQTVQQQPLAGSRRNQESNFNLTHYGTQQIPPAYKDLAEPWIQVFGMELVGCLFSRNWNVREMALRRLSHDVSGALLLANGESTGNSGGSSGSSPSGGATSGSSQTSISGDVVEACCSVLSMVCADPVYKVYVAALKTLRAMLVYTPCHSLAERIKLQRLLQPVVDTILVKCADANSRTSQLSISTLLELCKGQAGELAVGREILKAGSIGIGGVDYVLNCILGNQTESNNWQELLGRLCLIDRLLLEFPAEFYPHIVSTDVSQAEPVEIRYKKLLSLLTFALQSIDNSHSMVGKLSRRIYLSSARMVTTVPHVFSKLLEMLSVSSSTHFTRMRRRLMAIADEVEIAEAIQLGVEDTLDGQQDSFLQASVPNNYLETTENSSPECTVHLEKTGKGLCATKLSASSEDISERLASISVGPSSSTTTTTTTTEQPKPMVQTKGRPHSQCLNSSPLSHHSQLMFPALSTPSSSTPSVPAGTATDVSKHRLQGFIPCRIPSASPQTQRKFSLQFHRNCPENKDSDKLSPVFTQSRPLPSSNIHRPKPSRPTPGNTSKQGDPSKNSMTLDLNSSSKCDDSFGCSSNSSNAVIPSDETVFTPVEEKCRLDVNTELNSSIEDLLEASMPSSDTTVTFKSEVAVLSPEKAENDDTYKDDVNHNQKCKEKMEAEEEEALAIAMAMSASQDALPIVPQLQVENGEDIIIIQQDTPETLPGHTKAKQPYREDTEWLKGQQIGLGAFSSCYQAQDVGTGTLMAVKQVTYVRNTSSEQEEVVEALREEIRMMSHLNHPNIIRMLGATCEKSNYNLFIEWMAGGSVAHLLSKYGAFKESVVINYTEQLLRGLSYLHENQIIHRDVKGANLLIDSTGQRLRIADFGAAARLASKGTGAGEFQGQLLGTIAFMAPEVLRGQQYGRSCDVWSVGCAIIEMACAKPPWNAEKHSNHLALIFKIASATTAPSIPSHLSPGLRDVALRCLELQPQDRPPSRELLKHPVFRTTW
Chain of S-adenosylmethionine synthase isoform type-2 (P31153 whole entry, canonical isoform): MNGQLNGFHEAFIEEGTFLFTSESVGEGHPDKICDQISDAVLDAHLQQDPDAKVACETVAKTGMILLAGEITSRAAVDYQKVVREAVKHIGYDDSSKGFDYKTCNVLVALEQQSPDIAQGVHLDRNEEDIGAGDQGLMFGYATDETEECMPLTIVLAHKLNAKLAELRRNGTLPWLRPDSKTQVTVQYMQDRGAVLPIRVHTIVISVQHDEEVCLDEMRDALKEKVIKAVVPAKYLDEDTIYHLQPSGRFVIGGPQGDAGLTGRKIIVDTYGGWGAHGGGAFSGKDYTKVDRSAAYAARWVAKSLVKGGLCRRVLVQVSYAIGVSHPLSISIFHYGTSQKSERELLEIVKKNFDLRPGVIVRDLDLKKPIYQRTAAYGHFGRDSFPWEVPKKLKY
Chain of Tyrosine-protein kinase FRK (P42685 whole entry): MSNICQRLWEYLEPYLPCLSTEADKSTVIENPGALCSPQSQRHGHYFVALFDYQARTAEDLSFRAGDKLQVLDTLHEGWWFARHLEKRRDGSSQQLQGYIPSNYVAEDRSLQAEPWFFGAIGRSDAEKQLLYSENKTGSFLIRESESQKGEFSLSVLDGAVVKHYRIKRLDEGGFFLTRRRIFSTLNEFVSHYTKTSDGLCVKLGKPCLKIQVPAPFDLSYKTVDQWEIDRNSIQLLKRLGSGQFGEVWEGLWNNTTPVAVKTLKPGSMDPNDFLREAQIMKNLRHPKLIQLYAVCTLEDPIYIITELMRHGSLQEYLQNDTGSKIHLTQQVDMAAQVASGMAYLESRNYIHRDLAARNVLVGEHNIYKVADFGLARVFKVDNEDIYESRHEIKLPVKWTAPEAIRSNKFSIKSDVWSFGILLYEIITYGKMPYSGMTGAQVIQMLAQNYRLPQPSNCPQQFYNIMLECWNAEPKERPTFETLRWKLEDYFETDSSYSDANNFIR
Chain of RAC-alpha serine/threonine-protein kinase (P31749 whole entry): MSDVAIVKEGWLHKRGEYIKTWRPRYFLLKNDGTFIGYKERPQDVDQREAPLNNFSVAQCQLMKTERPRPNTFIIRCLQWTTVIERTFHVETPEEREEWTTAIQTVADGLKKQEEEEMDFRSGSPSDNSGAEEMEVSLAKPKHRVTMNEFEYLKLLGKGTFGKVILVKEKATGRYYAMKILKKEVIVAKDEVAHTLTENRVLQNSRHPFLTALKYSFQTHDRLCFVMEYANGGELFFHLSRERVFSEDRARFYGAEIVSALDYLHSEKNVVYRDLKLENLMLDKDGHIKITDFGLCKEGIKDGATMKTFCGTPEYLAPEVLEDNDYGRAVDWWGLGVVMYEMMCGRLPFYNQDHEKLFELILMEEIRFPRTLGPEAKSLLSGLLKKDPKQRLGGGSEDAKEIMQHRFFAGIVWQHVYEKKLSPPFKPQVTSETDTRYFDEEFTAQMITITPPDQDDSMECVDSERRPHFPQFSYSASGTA

Kd [1] | Kd [2] | Kd [3] | Kd [4] | Kd [5] | Kd [6] | Kd [7] | Kd [8] | Kd [9] | Kd [10] | SMILES
> 30 µM (inactive) | > 30 µM (inactive) | > 30 µM (inactive) | > 30 µM (inactive) | > 30 µM (inactive) | 1.48 µM (active) | > 30 µM (inactive) | > 30 µM (inactive) | 1.23 µM (active) | > 30 µM (inactive) | CCS(=O)(=O)N1CCN(c2ccc(Nc3ncc(C(N)=O)c(NC4CC4)n3)cc2)CC1 [Cerdulatinib Hydrochloride]
> 30 µM (inactive) | > 30 µM (inactive) | 7.9 µM (active) | > 30 µM (inactive) | > 30 µM (inactive) | > 30 µM (inactive) | > 30 µM (inactive) | > 30 µM (inactive) | > 30 µM (inactive) | > 30 µM (inactive) | Cc1cccc(-c2nn3c(c2-c2ccnc4ccc(C(N)=O)cc24)CCC3)n1 [GALUNISERTIB]
> 30 µM (inactive) | > 30 µM (inactive) | > 30 µM (inactive) | > 30 µM (inactive) | > 30 µM (inactive) | > 30 µM (inactive) | > 30 µM (inactive) | > 30 µM (inactive) | > 30 µM (inactive) | > 30 µM (inactive) | Cn1cc(-c2cnc3ccc4ccc(CS(=O)(=O)NCc5ccccn5)cc4c(=O)c3c2)cn1 [MK-8033]
> 30 µM (inactive) | > 30 µM (inactive) | > 30 µM (inactive) | > 30 µM (inactive) | > 30 µM (inactive) | > 30 µM (inactive) | > 30 µM (inactive) | > 30 µM (inactive) | 0.728 µM (active) | > 30 µM (inactive) | Cc1nc(Nc2n[nH]c3c2CN(C(=O)N[C@H](CN(C)C)c2ccccc2)C3(C)C)c2sccc2n1 [PF-03758309]
> 30 µM (inactive) | > 30 µM (inactive) | > 30 µM (inactive) | > 30 µM (inactive) | 4.01 µM | > 30 µM (inactive) | 1.25 µM | > 30 µM (inactive) | 2.55 µM | > 30 µM (inactive) | Cn1cc(-c2cnn3c(N)c(Br)c([C@@H]4CCCNC4)nc23)cn1 [SCH-900776]
> 30 µM (inactive) | > 30 µM (inactive) | > 30 µM (inactive) | > 30 µM (inactive) | > 30 µM (inactive) | > 30 µM (inactive) | > 30 µM (inactive) | > 30 µM (inactive) | > 30 µM (inactive) | > 30 µM (inactive) | CO[C@H]1C[C@@H]2CC[C@@H](C)[C@@](O)(O2)C(=O)C(=O)N2CCCC[C@H]2C(=O)O[C@H]([C@H](C)C[C@@H]2CC[C@@H](O)[C@H](OC)C2)CC(=O)[C@H](C)/C=C(\C)[C@@H](O)[C@@H](OC)C(=O)[C@H](C)C[C@H](C)/C=C/C=C/C=C/1C [SIROLIMUS]
> 30 µM (inactive) | > 30 µM (inactive) | > 30 µM (inactive) | 0.222 µM (active) | 2.13 µM (active) | > 30 µM (inactive) | > 30 µM (inactive) | > 30 µM (inactive) | 0.111 µM (active) | > 30 µM (inactive) | CCS(=O)(=O)c1cccc(-c2cc(C(=O)NC3CCN(C)CC3)c(C)c3[nH]c4ncc(C)cc4c23)c1 [TAK-901]

Second part, the compound before the results:

SMILES | Kd [1] | Kd [2] | Kd [3] | Kd [4] | Kd [5] | Kd [6] | Kd [7] | Kd [8] | Kd [9] | Kd [10]
O=C(Nc1nc2cccc(-c3ccc(CN4CCS(=O)(=O)CC4)cc3)n2n1)C1CC1 [FILGOTINIB] | > 30 µM (inactive) | > 30 µM (inactive) | > 30 µM (inactive) | > 30 µM (inactive) | > 30 µM (inactive) | > 30 µM (inactive) | > 30 µM (inactive) | > 30 µM (inactive) | > 30 µM (inactive) | > 30 µM (inactive)
COc1ccc(S(=O)(=O)N(C(C)=O)c2ccccc2/C=C/c2cc[n+]([O-])cc2)cc1 [HMN-214] | > 30 µM (inactive) | > 30 µM (inactive) | > 30 µM (inactive) | > 30 µM (inactive) | > 30 µM (inactive) | > 30 µM (inactive) | > 30 µM (inactive) | > 30 µM (inactive) | > 30 µM (inactive) | > 30 µM (inactive)
CNC(=O)c1cccc2cc(Oc3ccnc4cc(OCC5(N)CC5)c(OC)cc34)ccc12 [LUCITANIB] | > 30 µM (inactive) | > 30 µM (inactive) | > 30 µM (inactive) | > 30 µM (inactive) | > 30 µM (inactive) | > 30 µM (inactive) | > 30 µM (inactive) | > 30 µM (inactive) | 0.005 µM (active) | > 30 µM (inactive)
COc1ncc(-c2ccc3nccc(-c4ccnnc4)c3c2)cc1NS(=O)(=O)c1ccc(F)cc1F [OMIPALISIB] | > 30 µM (inactive) | > 30 µM (inactive) | > 30 µM (inactive) | > 30 µM (inactive) | > 30 µM (inactive) | > 30 µM (inactive) | > 30 µM (inactive) | > 30 µM (inactive) | > 30 µM (inactive) | > 30 µM (inactive)
CCOc1cc2ncc(C#N)c(Nc3ccc(F)c(Cl)c3)c2cc1NC(=O)/C=C/CN(C)C [PELITINIB] | > 30 µM (inactive) | > 30 µM (inactive) | 1.48 µM (active) | > 30 µM (inactive) | > 30 µM (inactive) | > 30 µM (inactive) | 0.097 µM (active) | > 30 µM (inactive) | > 30 µM (inactive) | > 30 µM (inactive)
CCCCCCCCCCCCCCCCCCOP(=O)([O-])OC1CC[N+](C)(C)CC1 [PERIFOSINE] | > 30 µM (inactive) | > 30 µM (inactive) | > 30 µM (inactive) | > 30 µM (inactive) | > 30 µM (inactive) | > 30 µM (inactive) | > 30 µM (inactive) | > 30 µM (inactive) | > 30 µM (inactive) | > 30 µM (inactive)
Cc1cnc(NC(=O)Nc2cc(Br)c(C)cc2OC[C@@H]2CNCCO2)cn1 [RABUSERTIB] | > 30 µM (inactive) | > 30 µM (inactive) | > 30 µM (inactive) | > 30 µM (inactive) | > 30 µM (inactive) | > 30 µM (inactive) | > 30 µM (inactive) | > 30 µM (inactive) | > 30 µM (inactive) | > 30 µM (inactive)
N#CC1(c2ccc(NC(=O)c3cccnc3NCc3ccncc3)cc2)CCCC1 [RIVOCERANIB] | > 30 µM (inactive) | > 30 µM (inactive) | > 30 µM (inactive) | > 30 µM (inactive) | > 30 µM (inactive) | > 30 µM (inactive) | > 30 µM (inactive) | > 30 µM (inactive) | 0.111 µM (active) | > 30 µM (inactive)
O=c1[nH]ccc2cc(OC3CCNCC3)ccc12 [SAR-407899 FREE BASE] | > 30 µM (inactive) | > 30 µM (inactive) | > 30 µM (inactive) | > 30 µM (inactive) | > 30 µM (inactive) | > 30 µM (inactive) | > 30 µM (inactive) | > 30 µM (inactive) | > 30 µM (inactive) | > 30 µM (inactive)
CN1CCN(CCOc2cc(OC3CCOCC3)c3c(Nc4c(Cl)ccc5c4OCO5)ncnc3c2)CC1 [SARACATINIB] | > 30 µM (inactive) | > 30 µM (inactive) | > 30 µM (inactive) | 2.33 µM (active) | > 30 µM (inactive) | > 30 µM (inactive) | > 30 µM (inactive) | > 30 µM (inactive) | 0.178 µM | > 30 µM (inactive)
